Data published in patent US11279702B2, “AMPK activators” (Kallyope, Inc., priority 2020, dated 2022).
Values belong to the compound of their own block, whether it stands above or below them.

Assays:
[1] = biological target: Recombinant AMPK α1/β1/γ1 complex (Homo sapiens (Human), UniProt Q13131+Q9Y478); assay: In vitro pAMPK1 kinase activation assay (ADP-Glo, SAMS peptide); format: biochemical; settings: for EC50: AMPK α1/β1/γ1 pre-activated with CAMKK2, 12-point curve; for activation at 10 µM: relative to reference compound MK-8722
Chain of Recombinant AMPK α1/β1/γ1 complex (Q13131 whole entry): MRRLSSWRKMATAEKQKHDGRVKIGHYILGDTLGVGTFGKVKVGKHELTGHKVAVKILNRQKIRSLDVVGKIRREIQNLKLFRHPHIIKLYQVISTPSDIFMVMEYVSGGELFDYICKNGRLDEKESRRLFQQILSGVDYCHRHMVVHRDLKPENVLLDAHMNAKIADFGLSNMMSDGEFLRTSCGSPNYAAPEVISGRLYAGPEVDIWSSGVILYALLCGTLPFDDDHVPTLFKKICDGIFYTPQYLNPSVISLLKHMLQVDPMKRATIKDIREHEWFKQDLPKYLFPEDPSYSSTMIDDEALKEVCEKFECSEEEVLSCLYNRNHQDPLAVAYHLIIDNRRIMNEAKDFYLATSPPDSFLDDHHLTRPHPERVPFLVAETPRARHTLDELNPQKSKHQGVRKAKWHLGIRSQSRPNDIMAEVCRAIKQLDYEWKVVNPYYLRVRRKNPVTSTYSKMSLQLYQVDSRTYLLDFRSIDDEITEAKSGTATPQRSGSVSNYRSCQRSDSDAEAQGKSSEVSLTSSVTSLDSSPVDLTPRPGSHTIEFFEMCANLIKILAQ
Chain of Recombinant AMPK α1/β1/γ1 complex (Q9Y478 whole entry): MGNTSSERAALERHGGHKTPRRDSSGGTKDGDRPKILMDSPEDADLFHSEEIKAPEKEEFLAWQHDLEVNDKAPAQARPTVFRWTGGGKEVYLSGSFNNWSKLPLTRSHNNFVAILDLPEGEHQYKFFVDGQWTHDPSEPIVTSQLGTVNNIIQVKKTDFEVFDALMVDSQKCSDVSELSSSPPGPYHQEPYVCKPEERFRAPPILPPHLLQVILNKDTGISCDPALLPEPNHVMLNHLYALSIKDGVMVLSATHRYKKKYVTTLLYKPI
Chain of Recombinant AMPK α1/β1/γ1 complex (P54619 whole entry partner): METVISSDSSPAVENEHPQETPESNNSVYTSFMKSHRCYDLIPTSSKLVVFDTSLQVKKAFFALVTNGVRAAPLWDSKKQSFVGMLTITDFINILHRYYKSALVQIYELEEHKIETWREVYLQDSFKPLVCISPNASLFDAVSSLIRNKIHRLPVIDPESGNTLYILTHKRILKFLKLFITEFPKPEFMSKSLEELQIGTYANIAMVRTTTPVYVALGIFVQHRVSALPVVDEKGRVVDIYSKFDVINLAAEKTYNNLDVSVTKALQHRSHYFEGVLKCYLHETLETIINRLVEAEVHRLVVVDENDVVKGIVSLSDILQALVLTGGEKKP
Procedure: Compound effect on AMPK enzyme activation was determined in a cell-free format with a 12-point concentration curve. The ADP-Glo detection system was used to determine phosphorylation of a SAMS peptide substrate. Recombinant AMPK α1/β1/γ1 complex was pre-activated by phosphorylation with CAMKK2 followed by incubated with compound for 15 minutes prior to the SAMS phosphorylation reaction. Activity curves and EC50 values were fitted by interpolation to an ATP:ADP standard curve as indicated by the ADP-Glo manufacturer using Prism software. Activity at 10 μM is reported relative to a reference compound, MK-8722 (Science 2017, 357(6350):507-511).

[2] = Pharmacokinetics (oral bioavailability, IV parameters); settings: mouse, in vivo; C57BL/6 mice, IV 1 mg/kg, PO 30 mg/kg
Procedure: Compounds were tested for pharmacokinetics in C57BL/6 mice. Compounds 2, 4, and A1 were dosed IV at 1 mg/kg as a formulation of 0.5 mg/mL in 5% DMSO+30% PEG400+65% water and PO at 30 mg/kg as a formulation of 6 mg/mL in 0.25% MC+5% Tween 80+0.02% SDS. Compound 1 was dosed IV at 1 mg/kg as a formulation of 0.50 mg/mL in 5% DMSO+30% PEG400+65% water and PO at 30 mg/kg as a formulation of 6 mg/mL in 0.5% MC+0.5% Tween 80.

[3] = tested on: Mouse In Vivo Chemotherapy-Induced Intestinal Injury Model; assay: Diarrhea in chemotherapy (5FU)-induced intestinal injury model; design: species or system BALB/c mice; settings: 30 mg/kg BID
Procedure: Compounds were formulated in vehicle (0.25% methyl cellulose, 5% Tween 80, 0.02% sodium dodecyl sulfate (SDS) in Hanks' Buffered Salt Solution with Ca2+ and Mg2+). On day 1, either saline or a 400 mg/kg dose of 5-fluorouracil (5FU) in saline was administered by intraperitoneal injection to BALB/c mice. Starting on day 2, vehicle or compound was administered once or twice a day by oral gavage. In some instances, compound was also administered once or twice a day by oral gavage from day −3 to day −1 (pre-5FU). From days 5 to 6 post-5FU, the animals were scored for diarrhea severity once a day. The diarrhea was scored 0-3 as follows: 0—normal consistency (black and solid), 1—soft (black and a bit lighter/yellow), 2—loosely shaped stool (yellowish and somewhat watery), 3—extreme diarrhea (very watery). Day 5 and day 6 diarrhea scores following administration of certain compounds were lower than vehicle control mice. […] In addition, Compound 1 was efficacious at doses as low as 3 mg/kg BID (6 mg/kg total daily dose).

[4] = tested on: Acetyl CoA Carboxylase (ACC) Phosphorylation in Mouse Muscle; assay: Level of ACC phosphorylation in mouse muscle; format: in vivo, C57BL/6J mice
Procedure: Systemic AMPK target engagement in vivo can be assessed by measuring the site-specific phosphorylation of a direct AMPK substrate, acetyl-coenzyme A carboxylase (ACC), in a well perfused tissue such as muscle.
Compounds were formulated in vehicle (0.25% methyl cellulose, 5% Tween 80, 0.02% sodium dodecyl sulfate (SDS) in Hanks' Buffered Salt Solution with Ca^2+ and Mg^2+). Male C57BL/6J mice were administered vehicle or compound once daily for 5 days. On the final day of dosing (day 1 for acute assessment, day 5 for sub-chronic assessment), mice were euthanized by cervical dislocation five hours post dose and samples of skeletal muscle (gastrocnemius) were removed and snap frozen in liquid nitrogen.
Frozen muscle tissues were homogenized. Homogenates were analyzed for protein concentration and equal amounts of protein were assayed for total and phosphorylated ACC (p-ACC) levels using Meso Scale Discovery's Multi-array assay kit. The ratio of p-ACC/total ACC was determined for each sample.

BCRP = BCRP (Homo sapiens (Human), UniProt Q9UNQ0); assay: in vitro; format: in vitro ADME
Chain of BCRP (Q9UNQ0 whole entry): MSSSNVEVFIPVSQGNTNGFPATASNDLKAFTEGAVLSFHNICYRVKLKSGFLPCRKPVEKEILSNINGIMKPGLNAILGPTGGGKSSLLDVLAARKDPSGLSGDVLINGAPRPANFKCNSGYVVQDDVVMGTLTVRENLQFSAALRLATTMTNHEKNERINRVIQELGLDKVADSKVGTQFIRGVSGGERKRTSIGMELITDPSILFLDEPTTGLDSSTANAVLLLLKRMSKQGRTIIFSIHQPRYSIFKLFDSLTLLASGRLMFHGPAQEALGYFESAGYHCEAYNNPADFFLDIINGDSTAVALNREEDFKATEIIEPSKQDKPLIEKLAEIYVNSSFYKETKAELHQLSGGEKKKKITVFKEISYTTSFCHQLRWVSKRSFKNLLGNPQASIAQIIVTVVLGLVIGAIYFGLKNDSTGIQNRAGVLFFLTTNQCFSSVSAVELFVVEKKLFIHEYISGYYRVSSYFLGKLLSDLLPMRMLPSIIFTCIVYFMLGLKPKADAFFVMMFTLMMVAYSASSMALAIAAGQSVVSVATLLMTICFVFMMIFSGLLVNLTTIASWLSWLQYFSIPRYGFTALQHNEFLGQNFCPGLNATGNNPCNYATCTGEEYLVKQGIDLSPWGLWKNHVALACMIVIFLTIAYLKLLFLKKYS
Procedure: Caco-2 cells purchased from ATCC were seeded onto […] (PET) in 96-well BD Insert plates at 1×10^5 cells/cm^2, and refreshed medium every 4-5 days until to the 21st to 28th day for confluent cell monolayer formation. The transport buffer in the study was HBSS with 10 mM HEPES at pH 7.40±0.05. Compounds were tested at 2 μM in the presence or absence of 30 μM novobiocin bi-directionally in duplicate. E3S was tested at 5 μM in the presence or absence of 30 μM novobiocin bi-directionally in duplicate, while nadolol and metoprolol were tested at 2 μM in the absence of novobiocin in A to B direction in duplicate. Final DMSO concentration was adjusted to less than 1%. The plate was incubated for 2 hours in CO2 incubator at 37+1° C., with 5% CO2 at saturated humidity without shaking. All samples were mixed with acetonitrile containing internal standard and were centrifuged at 4000 rpm for 10 min. Subsequently, 100 μL supernatant solution was diluted with 100 μL distilled water for LC/MS/MS analysis. Concentrations of test and control compounds in starting solution, donor solution, and receiver solution were quantified by LC/MS/MS, using peak area ratio of analyte/internal standard.

Compound: O[C@@H]1CO[C@H]2[C@@H]1OC[C@H]2Oc1nc2cc(Cl)c(-c3ccc(-c4ccccc4)cc3)cc2[nH]1 [MK-8722, reference compound]
% p-ACC/ACC ratio change vs. Vehicle, Sub-chronic (5 days) ([4]; 30 mg/kg once daily for 5 days, five hours post dose, gastrocnemius): 259.0% | % p-ACC/ACC ratio change vs. Vehicle, Acute (5 hr) ([4]; 30 mg/kg, day 1, five hours post dose, gastrocnemius): 275.7% | ratio of pACC/total ACC compared with vehicle control mice ([4]; 30 mg/kg, one-way ANOVA vs vehicle (Dunnett's post-test)): significantly higher

Compound: COCCc1ccc(OCC(O)CNC(C)C)cc1 (stereo not drawn) [metoprolol, reference compound]
Papp A→B at 2 h, 2 μM (BCRP; human, Caco-2, pH 7.4, Mean Papp (10^−6 cm/s) A to B): 147 nm/s | recovery at 2 h, 2 μM (BCRP; human, Caco-2, pH 7.4, Mean Recovery (%) A to B): 95.4%

Compound: C[C@]12CC[C@@H]3c4ccc(OS(=O)(=O)O)cc4CC[C@H]3[C@@H]1CCC2=O [Compound E3S, reference compound]
Efflux Ratio (BCRP; Caco-2): 36.79 | Mean Recovery (%) A to B (BCRP; Caco-2): 76.60% | Mean Recovery (%) B to A (BCRP; Caco-2): 98.34%

Compound: CCOP(=O)(O)CSc1nc2nc(-c3ccc(-c4ccccc4O)cc3)c(Cl)cc2[nH]1 [Compound 3, ethyl hydrogen (((6-chloro-5-(2′-hydroxy-[1,1′-biphenyl]-4-yl)-1H-imidazo[4,5-b]pyridin-2-yl)thio)methyl)phosphonate]
EC50 [1]: 2.38 nM | activation at 10 µM [1]: 49%

Compound: CC(C)(C)NCC(O)COc1cccc2c1CC(O)C(O)C2 (stereo not drawn) [nadolol, reference compound]
Mean Papp (10^−6 cm/s) A to B (BCRP; Caco-2): 0.11 10^−6 cm/s | Mean Recovery (%) A to B (BCRP; Caco-2): 99.73%

More lines, main results first:

EC50 [1]: 1.1 nM | activation at 10 µM [1]: 51%
Compound: O=C(O)CSc1nc2nc(-c3ccc(-c4ccc(-n5cncn5)cc4O)cc3)c(Cl)cc2[nH]1 [Compound 9, 2-((6-chloro-5-(2′-hydroxy-4′-(1H-1,2,4-triazol-1-yl)-[1,1′-biphenyl]-4-yl)-1H-imidazo[4,5-b]pyridin-2-yl)thio)acetic Acid]

EC50 [1]: 0.97 nM | activation at 10 µM [1]: 47% | bioavailability [2]: < 1%
Compound: CP(=O)(O)CSc1nc2nc(-c3ccc(-c4ccccc4O)cc3)c(Cl)cc2[nH]1 [Compound 2, (((6-chloro-5-(2′-hydroxy-[1,1′-biphenyl]-4-yl)-1H-imidazo[4,5-b]pyridin-2-yl)thio)methyl)(methyl)phosphinic Acid]

EC50 [1]: 20 nM | activation at 10 µM [1]: 39%
Compound: O=C(O)CSc1nc2nc(-c3ccc(-c4ccc(-n5cncn5)cc4)cc3)c(Cl)cc2[nH]1 [Compound 8, 2-((5-(4′-(1H-1,2,4-triazol-1-yl)-[1,1′-biphenyl]-4-yl)-6-chloro-1H-imidazo[4,5-b]pyridin-2-yl)thio)acetic Acid]

EC50 [1]: 1120 nM | activation at 10 µM [1]: 18%
Compound: CC(C)(C)CCc1ccc(-c2ccc(-c3nc4nc(SCC(=O)O)[nH]c4cc3Cl)cc2)c(O)c1 [Compound 6, 2-((6-chloro-5-(4′-(3,3-dimethylbutyl)-2′-hydroxy-[1,1′-biphenyl]-4-yl)-1H-imidazo[4,5-b]pyridin-2-yl)thio)acetic Acid]

EC50 [1]: 0.55 nM | activation at 10 µM [1]: 28% | bioavailability [2]: < 1%
Compound: O=P(O)(O)CSc1nc2nc(-c3ccc(-c4ccccc4O)cc3)c(Cl)cc2[nH]1 [Compound 4, (((6-chloro-5-(2′-hydroxy-[1,1′-biphenyl]-4-yl)-1H-imidazo[4,5-b]pyridin-2-yl)thio)methyl)phosphonic Acid]
Diarrhea Score % Change vs. Vehicle ([3]; Day 5): −58% | Diarrhea Score ([3]; Day 5, score 0-3): 0.37 | Diarrhea Score % Change vs. Vehicle ([3]; Day 6): −65% | Diarrhea Score ([3]; Day 6, score 0-3): 0.63

EC50 [1]: 43 nM | activation at 10 µM [1]: 42%
Compound: O=C(O)CSc1nc2nc(-c3ccc(N4CC[C@H](O)C4)cc3)c(Cl)cc2[nH]1 [Compound 7, (S)-2-((6-chloro-5-(4-(3-hydroxypyrrolidin-1-yl)phenyl)-1H-imidazo[4,5-b]pyridin-2-yl)thio)acetic Acid]
